IC50 data for 14 compounds are collected here from patent US20250277012A1 (Protagonist Therapeutics, Inc., priority 2021, published 2025).

Structures are written as SMILES. Positions of bridges follow the written chain, without caps; N, C: chain ends. Non-standard residues stand in square brackets, D forms with d. Residues, ends and D or L forms follow the SMILES beside them. Groups on a side chain read outwards from the residue. *: point of attachment. CH3O(CH2CH2O)11CH2CH2CO = COCCOCCOCCOCCOCCOCCOCCOCCOCCOCCOCCOCCC(=O)*; X1 = C[N+](C)(CCNC(=O)CCCCCCCCCCCCCCCCC(=O)O)CC(=O)*; X5 = CCCCCCCCCCCCCCCC(=O)NCC[N+](C)(C)CC(=O)*; C18 diacid = O=C(O)CCCCCCCCCCCCCCCCC(=O)*; Dip = N[C@H](C(=O)O)C(c1ccccc1)c1ccccc1; Pro(3R-OH) = O=C(O)[C@H]1NCC[C@H]1O; Palmitoyl = CCCCCCCCCCCCCCCC(=O)*; NMeF = CN[C@@H](Cc1ccccc1)C(=O)O; NMeT = CN[C@H](C(=O)O)[C@@H](C)O; β3hF = N[C@H](CC(=O)O)Cc1ccccc1; NMeK = CN[C@@H](CCCCN)C(=O)O; αMeP = C[C@@]1(C(=O)O)CCCN1; Isovaleryl = CC(C)CC(=O)*; NMeC = CN[C@@H](CS)C(=O)O; Dap = NC[C@H](N)C(=O)O; AEEA = NCCOCCOCC(=O)O; Ahx = NCCCCCC(=O)O

The first test has as its target T1, ferroportin (Homo sapiens, UniProt Q9NP59).
T1 sequence (Q9NP59 1-571): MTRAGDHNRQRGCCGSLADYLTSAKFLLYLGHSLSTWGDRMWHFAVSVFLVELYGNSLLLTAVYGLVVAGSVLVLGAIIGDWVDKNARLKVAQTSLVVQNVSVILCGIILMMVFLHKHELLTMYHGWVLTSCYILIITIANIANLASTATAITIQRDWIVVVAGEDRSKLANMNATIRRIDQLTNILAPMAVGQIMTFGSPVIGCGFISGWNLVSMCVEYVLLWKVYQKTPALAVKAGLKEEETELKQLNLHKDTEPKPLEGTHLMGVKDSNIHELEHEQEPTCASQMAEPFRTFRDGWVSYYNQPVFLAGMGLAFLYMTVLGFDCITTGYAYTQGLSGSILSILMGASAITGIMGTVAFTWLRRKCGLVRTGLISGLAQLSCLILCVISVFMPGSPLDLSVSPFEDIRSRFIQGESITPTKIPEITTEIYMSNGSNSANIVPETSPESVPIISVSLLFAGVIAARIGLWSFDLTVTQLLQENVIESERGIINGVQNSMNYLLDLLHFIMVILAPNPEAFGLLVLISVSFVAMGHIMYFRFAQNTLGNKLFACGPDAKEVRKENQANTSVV
As to the kind of experiment: T47D cell-based ferroportin internalization assay in presence of mouse serum albumin (MSA). Further details: a human breast carcinoma adherent cell line which endogenously expresses ferroportin; host or cells: T47D. To be noted: T47D internalization assay in presence of mouse serum albumin (MSA); Table 6E. Here is the method: The potency of the peptides in causing ferroportin internalization was evaluated in a T47D cell-based assay. […] In this internalization assay, the potency of the test peptides was evaluated in presence of serum albumin which is the main protein component in the blood. T47D cells were maintained in RPMI media (containing required amount of fetal bovine serum) and regularly sub-cultured. In preparation for the assay, the cells were seeded in 96-well plates at a density of 80-100 k cells per well in 100 ul volume and allowed to rest overnight. […] Sigma, A3139). The test peptide dilution series were allowed to incubate at room temperature for 30 min. Then the media was aspirated from the 96-well cell plate and test peptide dilution series were added. […] The AF647-conjugated detection peptide was previously verified to bind to ferroportin and cause its internalization. The cells were washed again after a 2 hr incubation in preparation for flow cytometry analysis. The Median Fluorescence Intensity (MFI) of the AF647-positive population was measured (after removing dead cells and non-singlets from the analysis). The MFI values were used to generate a dose-response curve and obtain IC50 potencies for the test peptides.
Broadly, the IC50 is the concentration at which inhibition is half-maximal. On to `CC(C)CC(=O)N[C@@H](CCC(=O)O)C(=O)N[C@H](C(=O)N[C@@H](Cc1c[nH]cn1)C(=O)N[C@H](C(=O)N1CCC[C@H]1C(=O)N[C@H]1CSSC[C@@H](C(=O)N(C)[C@@H](CCCCNC(=O)COCCOCCNC(=O)COCCOCCNC(=O)[C@H](CN)NC(=O)CCCCCCCCCCCCCCCCC(=O)O)C(=O)N(C)[C@@H](Cc2ccccc2)C(=O)N[C@H](CCCCN)C(N)=O)N(C)C1=O)C(c1ccccc1)c1ccccc1)[C@@H](C)O` [compound 266] (Isovaleryl-ETH[Dip]PC[NMeC][NMeK]([AEEA-AEEA-Dap-C18 diacid])[NMeF][dK]-NH2; disulfide 6-7), for which the IC50 fell in the range of 10 to 100 nM.

The same test, now with this note: Table 6E; T47D internalization assay with MSA.
As for `CCCCCCCCCCCCCCCC(=O)NCC[N+](C)(C)CC(=O)NCCCC[C@@H](C(=O)N[C@H](C(=O)N[C@H](CCCCN)C(N)=O)C(c1ccccc1)c1ccccc1)N(C)C(=O)[C@@H]1CSSC[C@H](NC(=O)[C@@H]2CCCN2C(=O)[C@@H](NC(=O)[C@H](Cc2cnc[nH]2)NC(=O)[C@@H](NC(=O)[C@H](CCC(=O)OC)NC(=O)CC(C)C)[C@@H](C)O)C(c2ccccc2)c2ccccc2)C(=O)N1` [compound 175] (Isovaleryl-E(OMe)TH[Dip]PCC[NMeK](X5)[Dip][dK]-NH2; disulfide 6-7), the half-inhibitory concentration (IC50) is 1 to 10 nM.
Still for that read-out and setting: in the case of `CC(C)CC(=O)N[C@@H](CCC(=O)O)C(=O)N[C@H](C(=O)N[C@@H](Cc1cnc[nH]1)C(=O)N[C@H](C(=O)N1CCC[C@H]1C(=O)N[C@H]1CSSC[C@@H](C(=O)N(C)[C@@H](CCCCNC(=O)COCCOCCNC(=O)COCCOCCNC(=O)C[N+](C)(C)CCNC(=O)CCCCCCCCCCCCCCCCC(=O)O)C(=O)N[C@H](CC(=O)N[C@H](CCCCN)C(N)=O)Cc2ccccc2)NC1=O)C(c1ccccc1)c1ccccc1)[C@@H](C)O` [compound 159] (Isovaleryl-ETH[Dip]PCC[NMeK]([AEEA-AEEA-X1])[β3hF][dK]-NH2; disulfide 6-7) it was 10 to 100 nM; in that of `CCCCCCCCCCCCCCCC(=O)NCCCCCC(=O)NCCCC[C@@H](C(=O)N[C@H](C(=O)N[C@H](CCCCN)C(N)=O)C(c1ccccc1)c1ccccc1)N(C)C(=O)[C@@H]1CSSC[C@H](NC(=O)[C@@H]2CCCN2C(=O)[C@@H](NC(=O)[C@H](Cc2cnc[nH]2)NC(=O)[C@H]([C@@H](C)O)N(C)C(=O)[C@H](CCC(=O)O)NC(=O)CC(C)C)C(c2ccccc2)c2ccccc2)C(=O)N1` [compound 173] (Isovaleryl-E[NMeT]H[Dip]PCC[NMeK]([Ahx-Palmitoyl])[Dip][dK]-NH2; disulfide 6-7), 1 to 10 nM; in that of `COCCOCCOCCOCCOCCOCCOCCOCCOCCOCCOCCOCCC(=O)NCCCC[C@@H](NC(=O)[C@@H](NC(=O)[C@H](CCCCNC(=O)COCCOCCNC(=O)COCCOCCNC(=O)C[N+](C)(C)CCNC(=O)CCCCCCCCCCCCCCCCC(=O)O)NC(=O)[C@@H]1CSSC[C@H](NC(=O)[C@@H]2CCCN2C(=O)[C@@H](NC(=O)[C@H](Cc2c[nH]cn2)NC(=O)[C@@H](NC(=O)[C@H](CCC(=O)O)NC(=O)CC(C)C)[C@@H](C)O)C(c2ccccc2)c2ccccc2)C(=O)N1)C(c1ccccc1)c1ccccc1)C(N)=O` [compound 203] (Isovaleryl-ETH[Dip]PCCK([AEEA-AEEA-X1])[Dip][dK](CH3O(CH2CH2O)11CH2CH2CO)-NH2; disulfide 6-7), 10 to 100 nM.
The same measure, in the same setting: with `CCCCCCCCCCCCCCCC(=O)NCCCCCC(=O)NCCCC[C@@H](C(=O)N[C@H](C(N)=O)C(c1ccccc1)c1ccccc1)N(C)C(=O)[C@@H]1CSSC[C@H](NC(=O)[C@@H]2CCCN2C(=O)[C@@H](NC(=O)[C@H](Cc2cnc[nH]2)NC(=O)[C@H]([C@@H](C)O)N(C)C(=O)[C@H](CCC(=O)O)NC(=O)CC(C)C)C(c2ccccc2)c2ccccc2)C(=O)N1` [compound 172] (Isovaleryl-E[NMeT]H[Dip]PCC[NMeK]([Ahx-Palmitoyl])[Dip]-NH2; disulfide 6-7) the figure was 1 to 10 nM; with `CC(C)CC(=O)N[C@@H](CCC(=O)O)C(=O)N[C@H](C(=O)N[C@@H](Cc1cnc[nH]1)C(=O)N[C@H](C(=O)N1CCC[C@H]1C(=O)N[C@H]1CSSC[C@@H](C(=O)N(C)[C@@H](CCCCNC(=O)CCCCCNC(=O)C[N+](C)(C)CCNC(=O)CCCCCCCCCCCCCCCCC(=O)O)C(=O)N[C@H](C(=O)N[C@H](CCCCN)C(N)=O)C(c2ccccc2)c2ccccc2)NC1=O)C(c1ccccc1)c1ccccc1)[C@@H](C)O` [compound 198] (Isovaleryl-ETH[Dip]PCC[NMeK]([Ahx-X1])[Dip][dK]-NH2; disulfide 6-7), 10 to 100 nM.
As to `CCCCCCCCCCCCCCCC(=O)NCC[N+](C)(C)CC(=O)NCCCC[C@@H](C(=O)N[C@H](C(N)=O)C(c1ccccc1)c1ccccc1)N(C)C(=O)[C@@H]1CSSC[C@H](NC(=O)[C@@H]2CCCN2C(=O)[C@@H](NC(=O)[C@H](Cc2cnc[nH]2)NC(=O)[C@@H]2[C@H](O)CCN2C(=O)[C@H](CCC(=O)O)NC(=O)CC(C)C)C(c2ccccc2)c2ccccc2)C(=O)N1` [compound 150] (Isovaleryl-E[Pro(3R-OH)]H[Dip]PCC[NMeK](X5)[Dip]-NH2; disulfide 6-7), the IC50 fell in the range of 1 to 10 nM.
Still for that read-out and setting: with `CC(C)CC(=O)N[C@@H](CCC(=O)O)C(=O)N(C)[C@H](C(=O)N[C@@H](Cc1c[nH]cn1)C(=O)N[C@H](C(=O)N1CCC[C@H]1C(=O)N[C@H]1CSSC[C@@H](C(=O)N(C)[C@@H](CCCCNC(=O)CCCCCNC(=O)C[N+](C)(C)CCNC(=O)CCCCCCCCCCCCCCCCC(=O)O)C(=O)N[C@H](C(=O)N[C@H](CCCCN)C(N)=O)C(c2ccccc2)c2ccccc2)NC1=O)C(c1ccccc1)c1ccccc1)[C@@H](C)O` [compound 190] (Isovaleryl-E[NMeT]H[Dip]PCC[NMeK]([Ahx-X1])[Dip][dK]-NH2; disulfide 6-7) the figure was 100 to 500 nM; with `CCCCCCCCCCCCCCCC(=O)NCC[N+](C)(C)CC(=O)NCCCC[C@@H](C(=O)N[C@H](C(N)=O)C(c1ccccc1)c1ccccc1)N(C)C(=O)[C@@H]1CSSC[C@H](NC(=O)[C@@H]2CCCN2C(=O)[C@@H](NC(=O)[C@H](Cc2cnc[nH]2)NC(=O)[C@H]([C@@H](C)O)N(C)C(=O)[C@H](CCC(=O)O)NC(=O)CC(C)C)C(c2ccccc2)c2ccccc2)C(=O)N1` [compound 169] (Isovaleryl-E[NMeT]H[Dip]PCC[NMeK](X5)[Dip]-NH2; disulfide 6-7), 1 to 10 nM; with `CC(C)CC(=O)N[C@@H](CCC(=O)O)C(=O)N[C@H](C(=O)N[C@@H](Cc1c[nH]cn1)C(=O)N[C@H](C(=O)N1CCC[C@H]1C(=O)N[C@H]1CSSC[C@@H](C(=O)N(C)[C@@H](CCCCNC(=O)COCCOCCNC(=O)COCCOCCNC(=O)C[N+](C)(C)CCNC(=O)CCCCCCCCCCCCCCCCC(=O)O)C(=O)N[C@H](C(=O)N[C@H](CCCCN)C(N)=O)C(c2ccccc2)c2ccccc2)NC1=O)C(c1ccccc1)c1ccccc1)[C@@H](C)O` [compound 158] (Isovaleryl-ETH[Dip]PCC[NMeK]([AEEA-AEEA-X1])[Dip][dK]-NH2; disulfide 6-7), 10 to 100 nM.
The same measure, in the same setting: with `CCCCCCCCCCCCCCCC(=O)NCC[N+](C)(C)CC(=O)NCCCC[C@@H](C(=O)N[C@H](C(=O)N[C@H](CCCCN)C(N)=O)C(c1ccccc1)c1ccccc1)N(C)C(=O)[C@@H]1CSSC[C@H](NC(=O)[C@@H]2CCCN2C(=O)[C@@H](NC(=O)[C@H](Cc2cnc[nH]2)NC(=O)[C@@H]2[C@H](O)CCN2C(=O)[C@H](CCC(=O)O)NC(=O)CC(C)C)C(c2ccccc2)c2ccccc2)C(=O)N1` [compound 152] (Isovaleryl-E[Pro(3R-OH)]H[Dip]PCC[NMeK](X5)[Dip][dK]-NH2; disulfide 6-7) the figure was 1 to 10 nM.
On the same count and under the same terms, in the case of `COC(=O)CC[C@H](NC(=O)CC(C)C)C(=O)N1CCC[C@@]1(C)C(=O)N[C@@H](Cc1c[nH]cn1)C(=O)N[C@H](C(=O)N1CCC[C@H]1C(=O)N[C@H]1CSSC[C@@H](C(=O)N(C)[C@@H](CCCCNC(=O)CCCCCNC(=O)C[N+](C)(C)CCNC(=O)CCCCCCCCCCCCCCCCC(=O)O)C(=O)N[C@H](C(=O)N[C@H](CCCCN)C(N)=O)C(c2ccccc2)c2ccccc2)NC1=O)C(c1ccccc1)c1ccccc1` [compound 145] (Isovaleryl-E(OMe)[αMeP]H[Dip]PCC[NMeK]([Ahx-X1])[Dip][dK]-NH2; disulfide 6-7) it was 10 to 100 nM; in that of `CC(C)CC(=O)N[C@@H](CCC(=O)O)C(=O)N1CC[C@@H](O)[C@H]1C(=O)N[C@@H](Cc1c[nH]cn1)C(=O)N[C@H](C(=O)N1CCC[C@H]1C(=O)N[C@H]1CSSC[C@@H](C(=O)N(C)[C@@H](CCCCNC(=O)CCCCCNC(=O)C[N+](C)(C)CCNC(=O)CCCCCCCCCCCCCCCCC(=O)O)C(=O)N[C@H](C(N)=O)C(c2ccccc2)c2ccccc2)NC1=O)C(c1ccccc1)c1ccccc1` [compound 154] (Isovaleryl-E[Pro(3R-OH)]H[Dip]PCC[NMeK]([Ahx-X1])[Dip]-NH2; disulfide 6-7), 10 to 100 nM.
